Literature values as cited in US20230285429A1, “CANNABINOID ACID FORMULATIONS, DELIVERY SYSTEMS, AND METHODS OF USE” (Flora Growth U.S. Holdings Corp., priority 2022, published 2023).

Test system: pseudovirus expressing the spike protein
Settings: human epithelial cell lines, CBGA or CBDA individually

SMILES | infection by pseudovirus expressing the spike protein
C=C(C)[C@@H]1CCC(C)=C[C@H]1c1c(O)cc(CCCCC)c(C(=O)O)c1O [CBDA, cannabidiolic acid] | reduce infection
CCCCCc1cc(O)c(C/C=C(\C)CCC=C(C)C)c(O)c1C(=O)O [CBGA, cannabigerolic acid] | reduce infection
